Experimental data from US9499550B2 (BRISTOL-MYERS SQUIBB COMPANY, priority 2012, dated 2016).
Read-outs that look alike come from different tables or passages of the source.

What was measured:
[1] = system: HCV genotype 1b (Con1) replicon in HUH-7 cells; assay: HCV replicon luciferase reporter assay, genotype 1b; assay type: cell-based; details: Hepatitis C virus, Huh-7, 72 h, 3 days incubation
Procedure, shortened: (§1)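 Replicon inhibition for both genotypes was measured as Renilla luciferase signal (EnduRen, 7.5 μM final, 2 h) after 3-day, 37° C exposure of replicon-bearing HUH-7 cells in 4% FCS DMEM, 0.5% DMSO. The 1b construct carries S1179I; the 1a H77 construct carries P1496L and S2204I. Twenty-point, 3-fold dilutions were fitted four-parametrically for EC50, and CC50 was taken from multiplexed Cell Titer-Blue.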

[2] = system: HCV genotype 1a (H77 strain) replicon in HUH-7 cells; assay: HCV replicon luciferase reporter assay, genotype 1a; assay type: cell-based; details: Hepatitis C virus, Huh-7, 72 h, 3 days incubation
Procedure, shortened: as §1

[3] = HCV genotype 1b replicon luciferase, read-out: LE_1b (EC50, range)
[4] = HCV genotype 1a replicon luciferase, read-out: LE_1a (EC50, range)
[5] = GETYPE1B, HCV genotype 1b replicon luciferase, read-out: LE_1b (EC50, range)
[6] = GETYPE1A, HCV genotype 1a replicon luciferase, read-out: LE_1a (EC50, range)
[7] = HCV genotype 1b replicon luciferase assay, range class, read-out: LE_1b (EC50, range)
[8] = HCV genotype 1a replicon luciferase assay, range class, read-out: LE_1a (EC50, range)

Structure (SMILES) | EC50 [1, 3] [nM] | EC50 [2, 4] [nM] | further results
CCCOc1cnc(O[C@@H]2C[C@H]3C(=O)N[C@]4(C(=O)NS(=O)(=O)C5(C)CC5)C[C@H]4/C=C\CC[C@@H](C)C[C@@H](C)[C@H](NC(=O)NC(C)(C)C(F)(F)F)C(=O)N3C2)c2ccccc12 [Compound 5087, (2R,6S,7R,9R,13aS,14aR,16aS,Z)-7,9-dimethyl-N-((1-methylcyclopropyl)sulfonyl)-5,16-dioxo-2-((4-propoxyisoquinolin-1-yl)oxy)-6-(3-(1,1,1-trifluoro-2-methylpropan-2-yl)ureido)-1,2,3,5,6,7,8,9,10,11,13a,14,14a,15,16,16a-hexadecahydrocyclopropa[e]pyrrolo[1,2-a][1,4]diazacyclopentadecine-14a-carboxamide] | < 5.46 | < 5.46 | 
CC[C@@H]1C[C@H](C)CC/C=C\[C@@H]2C[C@@]2(C(=O)NS(=O)(=O)C2(C)CC2)NC(=O)[C@@H]2C[C@@H](Oc3nc4cc(OC)c(F)cc4nc3C(F)(F)F)CN2C(=O)[C@H]1NC(=O)OC(C)(C)C(F)(F)F [Compound 4268] |  |  | EC50 [1, 5]: 1.01 to 5 nM; EC50 [2, 6]: 1.01 to 5 nM
COc1cc2ccnc(O[C@@H]3C[C@H]4C(=O)N[C@]5(C(=O)NS(=O)(=O)C6(CF)CC6)C[C@H]5/C=C\CC[C@@H](C)C[C@@H](C)[C@H](NC(=O)C(C)(C)C(F)(F)F)C(=O)N4C3)c2cc1F [Compound 4091, (2R,6S,7R,9R,13aS,14aR,16aS,Z)-2-(7-fluoro-6-methoxyisoquinolin-1-yloxy)-N-(1-(fluoromethyl)cyclopropylsulfonyl)-7,9-dimethyl-5,16-dioxo-6-(3,3,3-trifluoro-2,2-dimethylpropanamido)-1,2,3,5,6,7,8,9,10,11,13a,14,14a,15,16,16a-hexadecahydrocyclopropa[e]pyrrolo[1,2-a][1,4]diazacyclopentadecine-14a-carboxamide] | < 5.46 | < 5.46 | 
CC[C@@H]1C[C@H](C)CC/C=C\[C@@H]2C[C@@]2(C(=O)NS(=O)(=O)C2(C)CC2)NC(=O)[C@@H]2C[C@@H](Oc3ncc(N4CCOCC4)c4ccccc34)CN2C(=O)[C@H]1NC(=O)OC(C)(C)C [Compound 5417] | 1.01 to 5 | 1.01 to 5 | 
COc1cc2ccccc2c(O[C@@H]2C[C@H]3C(=O)N[C@]4(C(=O)NS(=O)(=O)C5(C)CC5)C[C@H]4/C=C\CC[C@H](C)C[C@@H](C)[C@H](NC(=O)OC(C)(C)C)C(=O)N3C2)n1 [Compound 6008, tert-butyl ((2R,6S,7R,9S,13aS,14aR,16aS,Z)-2-((3-methoxyisoquinolin-1-yl)oxy)-7,9-dimethyl-14a-(((1-methylcyclopropyl)sulfonyl)carbamoyl)-5,16-dioxo-1,2,3,5,6,7,8,9,10,11,13a,14,14a,15,16,16a-hexadecahydrocyclopropa[e]pyrrolo[1,2-a][1,4]diazacyclopentadecin-6-yl)carbamate] | < 5.46 | < 5.46 | 
CC[C@@H]1C[C@H](C)CC/C=C\[C@@H]2C[C@@]2(C(=O)NS(=O)(=O)C2CC2)NC(=O)[C@@H]2C[C@@H](Oc3ncc(C(N)=O)c4cc(OC)ccc34)CN2C(=O)[C@H]1NC(=O)OC(C)(C)C(F)(F)F [Compound 4345] |  |  | EC50 [1, 5]: 35 to 620 nM; EC50 [2, 6]: 5.01 to 35 nM
COc1nnc(O[C@@H]2C[C@H]3C(=O)N[C@]4(C(=O)NS(=O)(=O)C5(C)CC5)C[C@H]4/C=C\CC[C@H](C)C[C@@H](C)[C@H](NC(=O)OC(C)(C)C)C(=O)N3C2)c2ccccc12 [Compound 5015, tert-butyl ((2R,6S,7R,9S,13aS,14aR,16aS,Z)-2-((4-methoxyphthalazin-1-yl)oxy)-7,9-dimethyl-14a-(((1-methylcyclopropyl)sulfonyl)carbamoyl)-5,16-dioxo-1,2,3,5,6,7,8,9,10,11,13a,14,14a,15,16,16a-hexadecahydrocyclopropa[e]pyrrolo[1,2-a][1,4]diazacyclopentadecin-6-yl)carbamate] | < 5.46 | 4.82 to 103 | 
CC[C@@H]1C[C@H](C)CC/C=C\[C@@H]2C[C@@]2(C(=O)NS(=O)(=O)C2CC2)NC(=O)[C@@H]2C[C@@H](Oc3nc4cc(OC)c(F)cc4nc3O)CN2C(=O)[C@H]1NC(=O)OC(C)(C)C [Compound 4265, tert-butyl ((2R,6S,7R,9R,13aS,14aR,16aS,Z)-14a-((cyclopropylsulfonyl)carbamoyl)-7-ethyl-2-((6-fluoro-3-hydroxy-7-methoxyquinoxalin-2-yl)oxy)-9-methyl-5,16-dioxo-1,2,3,5,6,7,8,9,10,11,13a,14,14a,15,16,16a-hexadecahydrocyclopropa[e]pyrrolo[1,2-a][1,4]diazacyclopentadecin-6-yl)carbamate] | 35 to 620 | 35 to 620 | EC50 ([1]; HCV genotype 1b replicon luciferase, read-out: LE_1b (EC50)): 475 nM; EC50 ([2]; HCV genotype 1a replicon luciferase, read-out: LE_1a (EC50)): 616 nM
CCOc1nnc(O[C@@H]2C[C@H]3C(=O)N[C@]4(C(=O)NS(=O)(=O)C5CC5)C[C@H]4/C=C\CC[C@H](C)C[C@@H](CC)[C@H](NC(=O)OC(C)(C)C)C(=O)N3C2)c2ccccc12 [Compound 5042, tert-butyl ((2R,6S,7R,9S,13aS,14aR,16aS,Z)-14a-((cyclopropylsulfonyl)carbamoyl)-2-((4-ethoxyphthalazin-1-yl)oxy)-7-ethyl-9-methyl-5,16-dioxo-1,2,3,5,6,7,8,9,10,11,13a,14,14a,15,16,16a-hexadecahydrocyclopropa[e]pyrrolo[1,2-a][1,4]diazacyclopentadecin-6-yl)carbamate] | 4.82 to 103 | 4.82 to 103 | 
C[C@@H]1CCCC(O)[C@@H]2C[C@@]2(C(=O)NS(=O)(=O)C2(C)CC2)NC(=O)[C@@H]2C[C@@H](Oc3ncc(OC4CC4)c4ccccc34)CN2C(=O)[C@@H](NC(=O)OC(C)(C)C(F)(F)F)[C@H](C)C1 (some centres unmarked) [Compound 2002] |  |  | EC50 [1, 7]: 4.82 to 103 nM; EC50 [2, 8]: 4.82 to 103 nM
COc1ccc2c(O[C@@H]3C[C@H]4C(=O)N[C@]5(C(=O)NS(=O)(=O)C6CC6)C[C@H]5/C=C\CC[C@H](C)C[C@@H](C)[C@H](NC(=O)OC(C)(C)C(F)(F)F)C(=O)N4C3)nc(-c3ccccc3)cc2c1 [Compound 5191, 1,1,1-trifluoro-2-methylpropan-2-yl((2R,6S,7R,9S,13aS,14aR,16aS,Z)-14a-((cyclopropylsulfonyl)carbamoyl)-2-((6-methoxy-3-phenylisoquinolin-1-yl)oxy)-7,9-dimethyl-5,16-dioxo-1,2,3,5,6,7,8,9,10,11,13a,14,14a,15,16,16a-hexadecahydrocyclopropa[e]pyrrolo[1,2-a][1,4]diazacyclopentadecin-6-yl)carbamate] | < 5.46 | < 5.46 | 
COCCn1nc(O[C@@H]2C[C@H]3C(=O)N[C@]4(C(=O)NS(=O)(=O)C5(C)CC5)C[C@H]4/C=C\CC[C@@H](C)C[C@@H](C)[C@H](NC(=O)OC(C)(C)C(F)(F)F)C(=O)N3C2)c2ccccc2c1=O [Compound 1014, 1,1,1-trifluoro-2-methylpropan-2-yl((2R,6S,7R,9R,13aS,14aR,16aS,Z)-2-((3-(2-methoxyethyl)-4-oxo-3,4-dihydrophthalazin-1-yl)oxy)-7,9-dimethyl-14a-(((1-methylcyclopropyl)sulfonyl)carbamoyl)-5,16-dioxo-1,2,3,5,6,7,8,9,10,11,13a,14,14a,15,16,16a-hexadecahydrocyclopropa[e]pyrrolo[1,2-a][1,4]diazacyclopentadecin-6-yl)carbamate] |  |  | EC50 [1, 7]: 4.82 to 103 nM; EC50 [2, 8]: 4.82 to 103 nM
CC(C)Oc1ccc2c(O[C@@H]3C[C@H]4C(=O)N[C@]5(C(=O)NS(=O)(=O)C6CC6)C[C@H]5/C=C\CC[C@@H](C)C[C@@H](C)[C@H](NC(=O)OC(C)(C)C)C(=O)N4C3)nccc2c1 [Compound 5146, tert-butyl ((2R,6S,7R,9R,13aS,14aR,16aS,Z)-14a-((cyclopropylsulfonyl)carbamoyl)-2-((6-isopropoxyisoquinolin-1-yl)oxy)-7,9-dimethyl-5,16-dioxo-1,2,3,5,6,7,8,9,10,11,13a,14,14a,15,16,16a-hexadecahydrocyclopropa[e]pyrrolo[1,2-a][1,4]diazacyclopentadecin-6-yl)carbamate] | < 5.46 | < 5.46 | 
COc1ccc2c(O[C@@H]3C[C@H]4C(=O)N[C@]5(C(=O)NS(=O)(=O)C6(F)CC6)C[C@H]5/C=C\CC[C@@H](C)C[C@@H](C)[C@H](NC(=O)OC(C)(C)C(F)(F)F)C(=O)N4C3)nccc2c1 [Compound 11] |  |  | EC50 ([1]; GETYPE1B, HCV genotype 1b replicon luciferase assay, range class, read-out: LE_1b (EC50, range)): < 5.46 nM; EC50 ([2]; GETYPE1A, HCV genotype 1a replicon luciferase assay, range class, read-out: LE_1a (EC50, range)): < 5.46 nM
COc1cc(F)cc2c(O[C@@H]3C[C@H]4C(=O)N[C@]5(C(=O)NS(=O)(=O)C6(C)CC6)C[C@H]5/C=C\CC[C@H](C)C[C@@H](C)[C@H](NC(=O)OC(C)(C)C)C(=O)N4C3)nccc12 [Compound 3153, tert-butyl ((2R,6S,7R,9S,13aS,14aR,16aS,Z)-2-((7-fluoro-5-methoxyisoquinolin-1-yl)oxy)-7,9-dimethyl-14a-(((1-methylcyclopropyl)sulfonyl)carbamoyl)-5,16-dioxo-1,2,3,5,6,7,8,9,10,11,13a,14,14a,15,16,16a-hexadecahydrocyclopropa[e]pyrrolo[1,2-a][1,4]diazacyclopentadecin-6-yl)carbamate] |  |  | EC50 [1, 7]: 4.82 to 103 nM; EC50 [2, 8]: 4.82 to 103 nM
